Data taken from patent publication US20250026724A1, “(1,4,5-TRISUBSTITUTED 1H-PYRAZOL-3-YL)OXY-2-ALKYLTHIOALKYL ACIDS AND -ALKYL ACID DERIVATIVES, SALTS THEREOF AND USE THEREOF AS ACTIVE HERBICIDAL INGREDIENTS” (BAYER AKTIENGESELLSCHAFT, priority 2021, published 2025).

Columns and labels:
Format in all cases: in vivo
[1] = system: Amaranthus retroflexus (AMARE); test: Post-emergence herbicidal action, greenhouse pot trial; settings: visual rating after about 3 weeks; for pest or weed control at 80 g/ha / pest or weed control at 320 g/ha: Amaranthus retroflexus, 504 h; for pest or weed control at 80 g/ha: read-out: Post-emergence effect at 80 g/ha against AMARE in %; for pest or weed control at 320 g/ha: read-out: Post-emergence effect at 320 g/ha against AMARE in %
Description: (§1) Seeds of monocotyledonous and dicotyledonous weeds and crop plants are placed in sandy loam in plastic or organic planting pots, covered with soil and cultivated in a greenhouse under controlled growth conditions. 2 to 3 weeks after sowing, the trial plants are treated at the one-leaf stage. The compounds of the invention, formulated in the form of wettable powders (WP) or as emulsion concentrates (EC), are then sprayed onto the green parts of the plants as aqueous suspension or emulsion with addition of 0.5% additive at a water application rate equivalent to 600 l/ha. After about 3 weeks of keeping the trial plants in the greenhouse under optimum growth conditions, the effect of the preparations is rated visually in comparison to untreated controls. For example, 100% activity=the plants have died, 0% activity=like control plants.
(§2) Tables B1 to B14 below show the effects of selected compounds of the general formula (I) according to Table 1 on various harmful plants and at an application rate corresponding to 320 g/ha or lower, which were obtained by the trial procedure specified above. The appendices “a”, “b” and “c” give differentiation by dosage used with otherwise the same harmful plants tested.
(§3) As shown by results from Tables B1 to B19, inventive compounds of the general formula (I) in the case of post-emergence treatment have good herbicidal efficacy against harmful plants, for example Abutilon theophrasti (ABUTH), Alopecurus myosuroides (ALOMY), Amaranthus retroflexus (AMARE), Avena fatua (AVEFA), Digitaria sanguinalis (DIGSA), Echinochloa crus-galli (ECHCG), Bassia scoparia (KCHSC), Lolium rigidum (LOLRI), Matricaria inodora (MATIN), Pharbitis purpurea (PHBPU), Polygonum convolvulus (POLCO), Setaria viridis (SETVI), Veronica persica (VERPE) and Viola tricolor (VIOTR) at an application rate of 320 g of active substance or less per hectare, and good crop plant compatibility in the case of organisms such as Oryza sativa (ORYSA), Zea mays (ZEAMX), Brassica napus (BRSNW), Glycine max (GLXMA) and Triticum aestivum (TRZAS) at an application rate of 320 g or less per hectare.

Viola tricolor (VIOTR) = test: as above; settings: Viola tricolor, 504 h, read-out: Post-emergence effect against VIOTR
Description: as §1, §2, §3

[2] = system: Digitaria sanguinalis (DIGSA); test: as above; settings: visual rating after about 3 weeks; for pest or weed control at 320 g/ha: Digitaria sanguinalis, 504 h, read-out: Post-emergence effect at 320 g/ha against DIGSA in %
Description: as §1, §2, §3

[3] = system: Abutilon theophrasti (ABUTH); test: as above; settings: Abutilon theophrasti, 504 h, visual rating after about 3 weeks; for pest or weed control at 80 g/ha: read-out: Post-emergence effect at 80 g/ha against ABUTH in %; for pest or weed control at 320 g/ha: read-out: Post-emergence effect at 320 g/ha against ABUTH in %
Description: as §1, §2, §3

[4] = system: Polygonum convolvulus (POLCO); test: as above; settings: visual rating after about 3 weeks; for pest or weed control at 80 g/ha / pest or weed control at 320 g/ha: Fallopia convolvulus, 504 h; for pest or weed control at 80 g/ha: read-out: Post-emergence effect at 80 g/ha against POLCO in %; for pest or weed control at 320 g/ha: read-out: Post-emergence effect at 320 g/ha against POLCO in %
Description: as §1, §2, §3

Bassia scoparia (KCHSC) = test: as above; settings: 320 g/ha
Description: as §1, §2, §3

[5] = system: Pharbitis purpurea (PHBPU); test: as above; settings: visual rating after about 3 weeks; for pest or weed control at 80 g/ha / pest or weed control at 320 g/ha: Ipomoea purpurea, 504 h; for pest or weed control at 80 g/ha: read-out: Post-emergence effect at 80 g/ha against PHBPU in %; for pest or weed control at 320 g/ha: read-out: Post-emergence effect at 320 g/ha against PHBPU in %
Description: as §1, §2, §3

Lolium rigidum (LOLRI) = test: as above; settings: visual rating after about 3 weeks; for pest or weed control at 320 g/ha: Lolium rigidum, 504 h, read-out: Post-emergence effect at 320 g/ha against LOLRI in %
Description: as §1, §2, §3

Avena fatua (AVEFA) = test: as above; settings: visual rating after about 3 weeks; for pest or weed control at 320 g/ha: Avena fatua, 504 h, read-out: Post-emergence effect at 320 g/ha against AVEFA in %
Description: as §1, §2, §3

[6] = system: Alopecurus myosuroides (ALOMY); test: as above; settings: visual rating after about 3 weeks; for pest or weed control at 320 g/ha: Alopecurus myosuroides, 504 h, read-out: Post-emergence effect at 320 g/ha against ALOMY in %
Description: as §1, §2, §3

[7] = system: Echinochloa crus-galli (ECHCG); test: as above; settings: Echinochloa crus-galli, 504 h, visual rating after about 3 weeks; for pest or weed control at 80 g/ha: read-out: Post-emergence effect at 80 g/ha against ECHCG in %; for pest or weed control at 320 g/ha: read-out: Post-emergence effect at 320 g/ha against ECHCG in %
Description: as §1, §2, §3

Setaria viridis (SETVI) = test: as above; settings: visual rating after about 3 weeks; for pest or weed control at 320 g/ha: Setaria viridis, 504 h, read-out: Post-emergence effect at 320 g/ha against SETVI in %
Description: as §1, §2, §3

[8] = system: Matricaria inodora (MATIN); test: as above; settings: Tripleurospermum inodorum, 504 h, visual rating after about 3 weeks; for pest or weed control at 80 g/ha: read-out: Post-emergence effect at 80 g/ha against MATIN in %; for pest or weed control at 320 g/ha: read-out: Post-emergence effect at 320 g/ha against MATIN in %
Description: as §1, §2, §3

[9] = system: Triticum aestivum (TRZAS); test: Post-emergence crop plant compatibility, greenhouse pot trial; settings: in vivo
Description: as §1
The observed effects on selected crop plants are reported here in comparison to the untreated controls (values in %). The appendices “a”, “b” and “c” give differentiation by dosage used with otherwise the same useful plants tested.
as §3

SMILES | pest or weed control at 80 g/ha [1] [%] | pest or weed control at 320 g/ha [1] [%] | pest or weed control at 80 g/ha (Viola tricolor (VIOTR)) [%] | pest or weed control at 320 g/ha (Viola tricolor (VIOTR)) [%] | Post-emergence effect at 80 g/ha against DIGSA in % [2] [%] | pest or weed control at 320 g/ha [2] [%] | pest or weed control at 80 g/ha [3] [%] | pest or weed control at 320 g/ha [3] [%] | pest or weed control at 80 g/ha [4] [%] | pest or weed control at 320 g/ha [4] [%] | Post-emergence effect at 20 g/ha against PHBPU in % [5] [%] | pest or weed control at 80 g/ha [5] [%] | pest or weed control at 320 g/ha [5] [%] | pest or weed control at 320 g/ha (Lolium rigidum (LOLRI)) [%] | pest or weed control at 320 g/ha (Avena fatua (AVEFA)) [%] | pest or weed control at 320 g/ha [6] [%] | pest or weed control at 80 g/ha [7] [%] | pest or weed control at 320 g/ha [7] [%] | pest or weed control at 320 g/ha (Setaria viridis (SETVI)) [%] | pest or weed control at 320 g/ha [8] [%] | further results
COC(=O)C(Oc1nn(-c2ncccc2F)c(-c2ccc(F)nc2)c1Br)SC (single isomer, unassigned) [Example I-26] | 80 | 90 | 90 | 90 | 90 | 90 | 80 | 80 | 80 | 90 | 80 | 80 | 90 | 90 | 90 | 90 | 90 | 90 | 80 | 90 | Post-emergence effect at 20 g/ha against POLCO in % ([4]; 20 g/ha): 80%; Post-emergence effect against KCHSC (Bassia scoparia (KCHSC)): 80%; Post-emergence effect at 80 g/ha against AVEFA in % (Avena fatua (AVEFA); 80 g/ha): 80%; Post-emergence effect at 80 g/ha against ALOMY in % ([6]; 80 g/ha): 80%; pest or weed control at 80 g/ha [8]: 90%
CCOC(=O)C(Oc1nn(-c2ncccc2F)c(-c2ccc(F)nc2)c1Br)SC (single isomer, unassigned) [Example I-28] | 90 | 90 | 80 | 90 | 80 | 90 | 80 | 80 | 90 | 90 | 80 | 90 | 90 | 90 | 80 | 90 | 90 | 90 | 90 | 90 | Post-emergence effect at 20 g/ha against AMARE in % [1]: 80%; Post-emergence effect against KCHSC (Bassia scoparia (KCHSC)): 80%; Post-emergence effect at 80 g/ha against LOLRI in % (Lolium rigidum (LOLRI); 80 g/ha): 90%; Post-emergence effect at 80 g/ha against SETVI in % (Setaria viridis (SETVI)): 80%; pest or weed control at 80 g/ha [8]: 80%
CSC(Oc1nn(-c2cc(F)ccc2F)c(-c2cncc(F)c2)c1Br)C(=O)O (stereo not drawn) [Example I-06] |  |  | 80 | 90 |  | 80 |  |  |  |  |  |  | 80 |  |  |  |  | 90 |  | 90 | Post-emergence effect at 320 g/ha against TRZAS in % [9]: 20%
COC(=O)C(Oc1nn(-c2ccccc2F)c(-c2ccc(F)nc2)c1Br)SC (stereo not drawn) [Example I-10] | 80 | 80 | 80 | 90 | 90 | 90 | 90 | 90 | 80 | 80 |  |  | 80 | 90 |  | 100 | 80 | 90 | 90 | 90 | Post-emergence effect at 20 g/ha against AMARE in % [1]: 80%; Post-emergence effect at 80 g/ha against SETVI in % (Setaria viridis (SETVI)): 90%; pest or weed control at 80 g/ha [8]: 80%
CCOC(=O)C(Oc1nn(-c2ncccc2F)c(-c2ccccc2)c1Br)SC (stereo not drawn) [Example I-11] | 80 | 90 |  |  |  |  |  | 80 | 80 | 80 |  |  |  |  |  |  |  | 80 |  | 80 | Post-emergence effect at 320 g/ha against TRZAS in % [9]: 0%
CCOC(=O)C(Oc1nn(-c2ncccc2F)c(-c2ccc(F)nc2)c1Br)SC (stereo not drawn) [Example I-13] | 80 | 90 |  | 80 |  | 90 | 90 | 90 | 80 | 90 |  | 80 | 80 | 90 | 90 | 80 | 80 | 90 | 90 |  | Post-emergence effect at 80 g/ha against SETVI in % (Setaria viridis (SETVI)): 80%
COC(=O)C(Oc1nn(-c2ncccc2F)c(-c2ccc(F)nc2)c1Cl)SC (stereo not drawn) [Example I-56] |  |  | 80 | 90 |  | 80 | 80 | 90 | 80 | 90 | 80 | 90 | 90 | 90 | 90 | 80 | 90 | 90 | 90 | 80 | pest or weed control at 320 g/ha (Bassia scoparia (KCHSC); Bassia scoparia, 504 h, read-out: Post-emergence effect against KCHSC): 80%
